Source: ChEMBL document CHEMBL1146727, “Stereodefined and polyunsaturated inhibitors of histone deacetylase based on (2E,4E)-5-arylpenta-2,4-dienoic acid hydroxyamides” (Bioorg Med Chem Lett, 2004)

target: Histone deacetylase; test: Inhibition of histone deacetylase (HDAC) activity in HeLa cell nuclear extract; assay type: cell-based, Homo sapiens

| IC50 | SMILES |
| --- | --- |
| 252 nM | O=C(/C=C/C=C/c1ccc(Cl)cc1)NO |
| 49 nM | CC(/C=C/C(=O)NO)=C\c1ccc(NS(=O)(=O)c2ccc(Cl)cc2)cc1 |
| 302 nM | CC(/C=C/C(=O)NO)=C\c1ccc(Cl)cc1 |
| 10400 nM | COc1ccc(S(=O)(=O)Nc2ccc(/C=C/C=C/C(=O)NO)cc2)cc1 |
| 788 nM | CC(/C=C/C(=O)NO)=C\c1ccc(N(C)C)cc1 |
| 1700 nM | CN(C)c1ccc(/C=C/C=C/C(=O)NO)cc1 |
| 279 nM | O=C(/C=C/C=C/c1ccccc1)NO |

The remaining lines, values behind:

| SMILES | IC50 |
| --- | --- |
| CC(/C=C/C(=O)O)=C\c1ccc(NS(=O)(=O)c2ccc(Cl)cc2)cc1 | > 100000 nM |
| CC(CCC(=O)NO)Cc1ccc(NS(=O)(=O)c2ccc(Cl)cc2)cc1 (configuration not stated) | 1170 nM |
| CC(/C=C/C(=O)NO)=C\c1ccc(NS(=O)(=O)c2ccccc2)cc1 | 172 nM |
| COc1ccc(S(=O)(=O)Nc2ccc(/C=C(C)/C=C/C(=O)NO)cc2)cc1 | 74 nM |
| O=C(CCCCc1ccc(Cl)cc1)NO | 2580 nM |
